Source: US6737064B2, “Method for the diagnosis of neoplastic tissue comprising administering a vasopermeability enhancing peptide of human interleukin-2” (The University of Southern California, priority 1996, dated 2004)

Tested on: Raji tumor-bearing nude mice
Experiment: In vivo vasopermeability / biodistribution study, Raji lymphoma model (tumor uptake of 125I-Lym-1 F(ab')2 after pre-treatment)
Method: The Raji lymphoma cell line was used to produce heterotransplants in 6-week-old female nude mice by the subcutaneous injection of a 0.2 ml inoculum consisting of 4×10^7 Raji cells and 4×10^6 human fetal fibroblast feeder cells in the left thigh. Three days prior to injection, the mice were irradiated with 400 rads using a cesium irradiator to ensure a high take rate of the implanted cells. The tumors were grown for 14-18 days until they grew to approximately 1 cm in diameter.
To test the relative effects of the immunoconjugates on the biodistribution and tumor uptake of Lym-1 or TNT-1 in tumor-bearing mice, separate groups of 4-5 mice were given intravenous injections of 30 μg of antibody alone or antibody conjugate. At 2.5 hr after injection, each group received 50 μCi of ^125I-labeled Lym-1 or TNT-1 F(ab′)2 fragment as tracer.
All animals were sacrificed 72 hr later, by sodium pentobarbital overdose, for biodistribution analysis. Various organs, blood, and tumor were removed, weighed, and samples were counted in a gamma counter. For each mouse, data were expressed as tumor:organ ratio (cpm per gram tumor/cpm per gram organ) and percent injected dose/gram (% ID/g).

| Substance | Vasopermeability activity (in words) (intravenous administration) | Vasopermeability (% Lym-1/IL-2) (i.v., enhanced Lym-1 uptake relative to Lym-1/IL-2 conjugate, 30-40 pM of peptide per assay) |
| --- | --- | --- |
| E6: synthetic peptide fragment of human IL-2, amino acids 22-38 (QMILNGINNYKNPKLTR; UniProt P60568 42-58, looked up, fragment) [Fragment E6] | no activity | – |
| 3C: synthetic IL-2 peptide, amino acids 22-58 (SEQ ID NO:1), permeability enhancing peptide (EMILNGINNYKNPKLTRMLTFKFYMPKKATELKHLQC; listed as Homo sapiens) [Fragment 3C] | – | 0 |
